{"source": "patent US9255248B2", "about": "“Method of producing erythrocytes without feeder cells” (Anthrogenesis Corporation, priority 2009, dated 2016)", "key": {"CD34+ cells": {"test_system": "CD34+ cells", "assay": "Scaled-up pomalidomide-based CD34+ expansion in gas-permeable culture bag", "assay_type": "cell-based, human", "method": "CD34^+ cells were seeded in 10^4/mL pomalidomide-supplemented medium in a flexible, gas-permeable fluorocarbon culture bag (American Fluoroseal). After 7 days of incubation, the culture was centrifuged and exchanged with fresh pomalidomide-supplemented medium at three times the initial volume. By day 12, TNC and CD34^+ expansion were 350 (range: 250-700) and 200 (range: 100-450) fold, respectively (FIG. 4). Viability was 86% (range: 80-90%) by trypan blue. A total of 20 million CD34^+ cells were harvested."}, "[1]": {"test_system": "human UCB derived CD34+ cells", "assay": "Short-term serum-free, cytokine supplemented expansion of UCB derived CD34+ cells with pomalidomide", "assay_type": "cell-based", "conditions": "for CD34+ phenotype in the expanded population / CD133 level of expanded CD34+ cells / expanded CD34+ cells that are CD38 negative / total nucleated cell expansion: pomalidomide 2.7 μg/mL, 12 days", "method": "The ability of pomalidomide to enhance the expansion of human UCB derived CD34^+ cells in a short-term serum-free, cytokine supplemented culture system was evaluated. CD34^+ progenitor cells were enriched from cryopreserved UCB units to >90% purity and seeded (104 CD34^+ cells) in 1 mL of growth medium, which consists of IMDM plus serum substitute BIT (BSA, recombinant human insulin and transferrin, 20%), in the presence of SCF (50 ng/mL), Flt-3 ligand (50 ng/mL), and IL-3 (10 ng/mL). Pomalidomide, dissolved in DMSO, was supplemented at 2.7 μg/mL. The culture was incubated at 37° C., 5% CO2 for 12 days, with fresh medium added at day 7. Pomalidomide-free cultures with or without DMSO (0.05% v/v) were used as controls."}, "[2]": {"conditions": "day 12, culture bag, seeded 10^4/mL"}}, "data": [{"compound": "Nc1cccc2c1C(=O)N(C1CCC(=O)NC1=O)C2=O", "note": "(stereo not shown) [pomalidomide, 4-(Amino)-2-(2,6-dioxo(3-piperidyl))-isoindoline-1,3-dione]", "values": [{"measurement": "ex-vivo expansion of placental derived CD34+ progenitors", "setting": "CD34+ cells", "result": "significantly enhanced"}, {"measurement": "Viability by trypan blue", "setting": "CD34+ cells; day 12, culture bag", "result": "86% (range: 80-90%)"}, {"measurement": "total CD34+ cells harvested", "setting": "CD34+ cells; day 12, culture bag", "result": 20, "unit": "million"}, {"measurement": "CD34+ expansion", "setting": "CD34+ cells; [2]", "result": "200 (range: 100-450) fold"}, {"measurement": "TNC expansion", "setting": "CD34+ cells; [2]", "result": "350 (range: 250-700) fold"}, {"measurement": "CD34+ expression in the expanded population versus control", "setting": "[1]; first experiment", "result": "significantly higher CD34^+ expression"}, {"measurement": "CD38 expression on cultured cells", "setting": "[1]; first experiment", "result": "appeared to down-regulate CD38 expression"}, {"measurement": "cumulative colony forming units relative to expanded controls", "setting": "[1]; first experiment", "result": "substantial improvement"}, {"measurement": "CD34+ phenotype in the expanded population", "setting": "[1]; first experiment", "result": "40-60%"}, {"measurement": "CD133 level of expanded CD34+ cells", "setting": "[1]; first experiment", "result": 15, "unit": "%"}, {"measurement": "expanded CD34+ cells that are CD38 negative", "setting": "[1]; first experiment", "result": 95, "unit": "%"}, {"measurement": "total nucleated cell expansion", "setting": "[1]; first experiment", "result": "200-350 fold"}, {"measurement": "CD34+ phenotype in the expanded population", "setting": "[1]; second similar experiment", "result": "40-60%"}, {"measurement": "CD133 level of expanded CD34+ cells", "setting": "[1]; second similar experiment", "result": 11.5, "unit": "%"}, {"measurement": "expanded CD34+ cells that are CD38 negative", "setting": "[1]; second similar experiment", "result": 97, "unit": "%"}, {"measurement": "total nucleated cell expansion", "setting": "[1]; second similar experiment", "result": "200-350 fold"}, {"measurement": "CD34+ expression in the expanded population versus control", "setting": "[1]; second similar experiment", "result": "significantly higher CD34^+ expression"}, {"measurement": "CD38 expression on cultured cells", "setting": "[1]; second similar experiment", "result": "appeared to down-regulate CD38 expression"}, {"measurement": "cumulative colony forming units relative to expanded controls", "setting": "[1]; second similar experiment", "result": "substantial improvement"}]}]}
